According to article PMC7649969, “Pyrazolyl-pyrimidones inhibit the function of human solute carrier protein SLC11A2 (hDMT1) by metal chelation” (RSC Medicinal Chemistry, 2020):
Entries after “also recorded” stand apart in the source; their conditions may differ.

How the values were obtained:
hDMT1 (SLC11A2) = biological target: T1, hDMT1 (SLC11A2) (Homo sapiens, UniProt P49281); assay: radioactive iron uptake assay in HEK293 cells stably overexpressing hDMT1; assay type: cell-based; details: for IC50: radioactive iron 1 μM, 15 min incubation, extracellular pH 5.5, HEK293 stably overexpressing hDMT1; for mode of inhibition: 55Fe2+ uptake kinetics; for Ki: [Fe^2+] → 0, Dixon plot analysis, read-out: inhibition constant Ki; for Ligand efficiency: from IC50 of radioactive iron uptake in HEK293-hDMT1; for inhibition constant Kii: saturating iron, 1/Vmax vs [I]
T1 construct: DsRED; expressed in transfected cells
T1 sequence (P49281 1-568): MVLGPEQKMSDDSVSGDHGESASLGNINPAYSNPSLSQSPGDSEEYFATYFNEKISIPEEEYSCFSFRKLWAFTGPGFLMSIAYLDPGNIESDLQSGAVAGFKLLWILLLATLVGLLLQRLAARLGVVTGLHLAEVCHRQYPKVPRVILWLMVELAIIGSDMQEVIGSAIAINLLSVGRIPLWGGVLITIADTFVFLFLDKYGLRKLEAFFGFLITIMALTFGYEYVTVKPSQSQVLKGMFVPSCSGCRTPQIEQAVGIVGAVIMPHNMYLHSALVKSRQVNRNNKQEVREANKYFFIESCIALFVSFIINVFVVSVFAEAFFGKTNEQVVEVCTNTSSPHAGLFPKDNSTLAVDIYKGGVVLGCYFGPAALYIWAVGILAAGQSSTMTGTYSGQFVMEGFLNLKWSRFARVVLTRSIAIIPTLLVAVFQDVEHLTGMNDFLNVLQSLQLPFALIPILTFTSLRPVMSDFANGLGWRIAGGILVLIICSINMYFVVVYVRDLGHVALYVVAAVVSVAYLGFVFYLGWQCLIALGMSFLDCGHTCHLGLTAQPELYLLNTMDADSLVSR

[1] = iron precipitation assay (removal of radioactive 55Fe2+ from buffer); assay type: physicochemical; details: compound 10 μM, 15 min
Experimental: Fig. 4 Chemical evidence of divalent metal complexation by hDMT1 inhibitors. (a and b) Isothermal titration calorimetry of pyrazole 13 (0.4 mM) with Cd^2+ (5 mM) in aqueous buffer pH 7.4 and pH 5.5, 25 °C. (c) Calcein quenching assay in aqueous buffer pH 5.5 (2 μM Fe^2+, 10 μM ligand, 1 μM calcein). Fe^2+ (2 μM), ascorbic acid (200 μM) and compounds (20 μM) were incubated for 5 min before the addition of calcein (1 μM) in Krebs buffer at pH 5.5. Fluorescence was measured after 5 min incubation. (d and e) Removal of radioactive ^55Fe^2+ from buffers upon incubation with ligands and centrifugation. ^55Fe^2+ (1 μM) precipitation upon interaction with the indicated compounds (10 μM). ^55Fe^2+ and the indicated compounds were incubated for 15 min, then, an aliquot of the solution supernatant was taken for determination of the remaining ^55Fe^2+. Data was normalized to the values obtained for the Fe^2+ + DMSO (0.1%) solution and represented as mean ± SD (N = 15; 2 independent experiments). Statistical differences were assessed using T-test or Mann–Whitney U test (Fe^2++ DMSO vs. each compound); p > 0.05 = ns; p < 0.05 = *; p < 0.001 = ***. […]
Iron precipitation assay. Polypropylene tubes containing uptake solution (140 mM NaCl, 2.5 mM KCl, 1 mM CaCl2, 1 mM MgCl2, 1.2 mM K2HPO4, 10 mM glucose, 5 mM HEPES, 5 mM MES, pH 7.4) supplemented with 1 µM Ferrous iron (Fe2+), 100 µM Ascorbic Acid, radiolabelled 55Fe2+ (0.5 µCi/mL) and 10 µM of the different compounds under study were incubated for 15 minutes at RT. Then, 10 µL aliquots from each tube were transferred in quadruplicate to a clear bottom, white -well, poly-D-lysine coated 96-well plate (Corning), and 55Fe2+ content was determined by scintillation counting as above described. […]
Statistics. Except when representative experiments are presented, results are shown as Mean ± Standard deviation (SD). Parametric distribution of the averaged values was assessed by […]

| Compound | IC50 (hDMT1 (SLC11A2)) [µM] | precipitation of Fe2+ ([1]; pH 7.4, 55Fe2+ 1 μM) | mode of inhibition (hDMT1 (SLC11A2)) | Ki (hDMT1 (SLC11A2)) [µM] | Ligand efficiency (hDMT1 (SLC11A2)) | potency weaker than originally reported value based on a calcein assay (hDMT1 (SLC11A2); radioactive iron uptake vs reported calcein assay) [fold] | inhibition constant Kii (hDMT1 (SLC11A2)) [µM] | improvement of IC50 over initial inhibitor 5 (hDMT1 (SLC11A2); radioactive iron uptake) [fold] | precipitation of Fe2+ ([1]; pH 5.5, 55Fe2+ 1 μM) |
| --- | --- | --- | --- | --- | --- | --- | --- | --- | --- |
| Cc1cc(O)nc(-n2nc(C)cc2C)n1 [Compound 5] | 13.1 ± 0.7 | had no effect | – | – | – | – | – | – | – |
| N=C(N)SCc1cccc2c1oc1c(CSC(=N)N)cccc12 [Compound 1, reference compound] | 1.76 ± 0.06 | had no effect | competitive inhibition | 1.4 | 0.35 | 5 | 15.6 | – | – |
| c1ccc(-c2ccccn2)nc1 [bipyridine] | – | had no effect | – | – | – | – | – | – | – |
| Cc1cc(=O)[nH]c(-n2nc3c(c2C)CCCC3)n1 [Compound 13] | 1.1 ± 0.01 | induced significant precipitation | non-competitive inhibitor | 2 | 0.45 | – | 1.7 | 10 | – |
| Cc1nn(-c2ccccn2)c(O)c1C(=O)Nc1cccc(C(F)(F)F)c1 [Compound 3, reference compound] | – | induced significant precipitation | – | – | – | – | – | – | only observed precipitation with the literature inhibitor 3; also recorded: high precipitation of iron |
